Measured values reported in patent publication US9226913B2, “Methods of treating cancer using a combination of an immunomodulatory compound and an artemisinin or a derivative thereof” (Celgene Corporation, priority 2010, dated 2016).

Key:
[1] = tested on: KM cells; experiment: MTT proliferation assay, 72 hr (Example 6.1); assay type: cell-based; details: Homo sapiens, KM (melanoma), 72 hours treatment, mean ± SD of at least 3 experiments
Experimental: (§1) The human cancer cell lines; MCF7 (breast), HCT116 and SW480 (colon) (Cancer Research UK, London, UK), KM and MJT3 (melanoma) (in house), PANC1 and MIAPaCa (pancreas) (European Collection of Cell Cultures, Salisbury, UK) were grown in either DMEM (Sigma) or RPMI (Sigma) media supplemented with 10% foetal bovine serum, 2 mM L-glutamine, 1% penicillin/streptomycin.
(§2) To study the effect of ATM and ART on cell growth, cells growing exponentially were added to 96-well plates at a density of 3×10^4/well. Drugs (0.1-100 μM) were then added to the wells, ensuring an equal volume of 200 μL across the plate. Cell number/proliferation was measured at 72 hr using a standard methylthiazoletetrazolium (MTT)-based assay without modifications. Briefly, MTT (Sigma) was added to each well to give a working concentration of 0.4 mg/ml, and plates returned to the incubator for a further 1 hr. After this time, the medium was aspirated off, 200 μL of DMSO was then added to each well, and plates agitated gently for 5 min before measuring optical density at 540 nm in each well.

[2] = tested on: MiaPaCa3 cells; experiment: MTT proliferation assay, 72 hr (Example 6.1); assay type: cell-based; details: Homo sapiens, MiaPaCa3 (pancreas), 72 hours treatment, mean ± SD of at least 3 experiments
Experimental: as §1, §2

[3] = tested on: MJT3 cells; experiment: MTT proliferation assay, 72 hr (Example 6.1); assay type: cell-based, human; details: for IC50: Homo sapiens, MJT3 (melanoma), 72 hours treatment, MTT, mean ± SD of at least 3 experiments
Experimental: as §1, §2

[4] = tested on: MCF7 cells; experiment: MTT proliferation assay, 72 hr (Example 6.1); assay type: cell-based, human; details: for IC50: MCF7 (breast), 72 hours treatment, MTT, mean ± SD of at least 3 experiments
Experimental: as §1, §2

[5] = tested on: HCT116 cells; experiment: MTT proliferation assay, 72 hr (Example 6.1); assay type: cell-based, human; details: for IC50: Homo sapiens, HCT-116, HCT116 (colon), 72 hours treatment, MTT, mean ± SD of at least 3 experiments
Experimental: as §1, §2

[6] = tested on: SW480 cells; experiment: MTT proliferation assay, 72 hr (Example 6.1); assay type: cell-based, human; details: for IC50: Homo sapiens, SW480 (colon), 72 hours treatment, MTT, mean ± SD of at least 3 experiments
Experimental: as §1, §2

[7] = tested on: PANC1 cells; experiment: MTT proliferation assay, 72 hr (Example 6.1); assay type: cell-based, human; details: for IC50: Homo sapiens, PANC-1, PANC1 (pancreas), 72 hours treatment, MTT, mean ± SD of at least 3 experiments
Experimental: as §1
as §2, with “Drugs (0.1-100 μM) were then added to the wells, ensuring an equal volume of 200 μL across the plate.” left out

[8] = tested on: p21^waf1cip1; experiment: Immunoblotting analysis (Example 6.1); assay type: cell-based, human; details: whole cell lysates, ~IC25, 72 hrs
Experimental: (§3) Cells were harvested and total cellular protein was solubilised in lysis buffer (New England Biolabs, Hitchin, UK) and resolved by Tris-glycine electrophoresis using a 4-12% bis-tris gradient-gel according to the method of Laemmli (Laemmli UK. 1970. Nature, 227(5259):680-5). Following transfer of proteins to nitrocellulose membranes (0.45 μm), blocking was performed in 5% (w/v) non-fat milk in TTBS [0.5% (v/v) Tween-20 in TBS (50 mM Tris, 150 mM NaCl, pH 8.0)]. Primary antibody probing was performed with anti-p53, anti-p21, anti-Bax, anti-CDK4, anti-cyclin D1 or anti-pRb. All primary antibodies were obtained from New England Biolabs (Hitchin, UK) and used at a dilution of 1:1,000, unless stated otherwise. Anti-GAPDH was used as a loading control (1:2,000—New England). Following five washing steps in TTBS, horseradish peroxidase-conjugated anti-species IgG1 was used as the secondary antibody (Amersham Biosciences Ltd., Little Chalfont, UK). Bands were visualised by the ECL-plus detection system (Amersham).

[9] = tested on: cyclin D1 and CDK 4; experiment: Immunoblotting analysis (Example 6.1); assay type: cell-based, human; details: whole cell lysates, equi-active (~IC25) concentrations, 72 hrs
Experimental: as §3

[10] = tested on: Bax; experiment: Immunoblotting analysis (Example 6.1); assay type: cell-based, human; details: immunoblotting of treated cultures
Experimental: as §3

[11] = tested on: pRb; experiment: Immunoblotting analysis (Example 6.1); assay type: cell-based, human; details: in each cell line (HCT116, SW480, MCF7)
Experimental: as §3

[12] = tested on: human cancer cell lines; experiment: Trypan blue dye exclusion in parallel to MTT (Example 6.1); assay type: cell-based; details: in parallel to the MTT assay; data not shown
[13] = tested on: HCT116, SW480 and MCF7 cells; experiment: Combination with OXP at fixed ratio, nature of interaction (Example 6.1); assay type: cell-based, human; details: combined with OXP, median effect analysis
Description: This combination studies followed an approach previously described (Liu et al. 2008, Leuk Lymphoma, 49(9):1800-9).

[14] = tested on: Plasmodium falciparum; details: Haynes 2006; Vivas 2007; Ramharter 2006; cited from earlier work
[15] = Nagelschmitz et al., 2008; cited from earlier work
[16] = tested on: MCF7 cells; experiment: Flow cytometric analysis of the cell cycle (Example 6.1); assay type: cell-based, human
Experimental: (§4) Cells were cultured with equi-active concentrations (˜IC25) of ART or ATM for 72 hrs, before fixing in 70% (v/v) ethanol in PBS. Following an incubation period of at least 30 mins, cells were washed and re-suspended in a DNA staining solution (1 mg/mL propidium iodide and 1 ng/mL RNAse A (both Sigma). Acquisition of data was performed within 1 h using a Becton Dickinson FACSCalibur (BD Biosciences), and gating was employed to remove doublet artefacts and to discriminate cells from debris. Ten thousand cells were analysed, and the percentages of cells in G1, S and G2/M phases were determined using the cell cycle analysis program WinMDI CellQuest v2.9 (http://facs.scripps.edu/software.html).

[17] = tested on: HCT116 cells; experiment: as above; assay type: cell-based, human
Experimental: as §4

[18] = tested on: SW480 cells; experiment: as above; assay type: cell-based, human; details: SW480, equi-active (~IC25) concentration, 72 hrs
Experimental: as §4

[19] = tested on: Bax; experiment: Immunoblotting analysis (Example 6.2); assay type: cell-based, human
Experimental: (§5) Cells were harvested and total cellular protein was solubilised in lysis buffer (New England Biolabs, Hitchin, UK) and resolved by Tris-glycine electrophoresis using a 4-12% bis-tris gradient-gel. Following transfer of proteins to 0.45 μm nitrocellulose membranes, blocking was performed in 5% (w/v) non-fat milk in TTBS [0.5% (v/v) Tween-20 in TBS (50 mM Tris, 150 mM NaCl, pH 8.0)]. Primary antibody probing was performed with anti-p21, anti-Bax, anti-CDK4, anti-cyclin D1, anti-pRb or anti-cyclin B1. All primary antibodies were obtained from New England Biolabs (Hitchin, UK) and used at a dilution of 1:1,000, unless stated otherwise. Anti-GAPDH was used as a loading control (1:2,000—New England). Following three washing steps in TTBS, horseradish peroxidase-conjugated anti-species IgG was used as the secondary antibody (Amersham Biosciences Ltd., Little Chalfont, UK). Bands were visualised by the ECL-plus detection system (Amersham).

[20] = tested on: cyclin B; experiment: Immunoblotting analysis (Example 6.2); assay type: cell-based, human
Experimental: as §5

[21] = tested on: HCT116^norm cells; experiment: MTT proliferation assay, 72 hr (Example 6.2); assay type: cell-based, human; details: Homo sapiens, 72 h, MTT, mean ± SD of at least five experiments, read-out: IC50
Experimental: (§6) The human cancer cell lines; MCF7 (breast), HCT116 (colon) and A549 (lung) (Cancer Research UK, London, UK), were grown in either DMEM (Sigma) or RPMI (Sigma) media supplemented with 10% foetal bovine serum, 2 mM L-glutamine, 1% penicillin/streptomycin.
as §2, with “each agent” for “ATM and ART”, “μl” for “μL”, “number” for “number/proliferation”, “modifications as described previously (Gordi et al., 2004, Toxicol. Lett. 147: 99-107).” for “modifications.”

[22] = tested on: A549 cells; experiment: MTT proliferation assay, 72 hr (Example 6.2); assay type: cell-based, human; details: Homo sapiens, A549, 72 h, mean ± SD of at least five experiments
Experimental: as §6
as §2, with “each agent” for “ATM and ART”, “μl” for “μL”, “number” for “number/proliferation”, “modifications as described previously (Gordi et al., 2004, Toxicol. Lett. 147: 99-107).” for “modifications.”

[23] = tested on: MCF7 cells; experiment: MTT proliferation assay, 72 hr (Example 6.2); assay type: cell-based, human; details: Homo sapiens, MCF7, 72 h, mean ± SD of at least five experiments
Experimental: as §6
as §2, with “each agent” for “ATM and ART”, “μl” for “μL”, “number” for “number/proliferation”, “modifications as described previously (Gordi et al., 2004, Toxicol. Lett. 147: 99-107).” for “modifications.”

[24] = tested on: HCT116^poly cells; experiment: MTT proliferation assay, 72 hr (Example 6.2); assay type: cell-based, human; details: Homo sapiens, HCT116^poly (polyploid extended-passage variant)
Experimental: as §2, with “each agent” for “ATM and ART”, “μl” for “μL”, “number” for “number/proliferation”, “modifications as described previously (Gordi et al., 2004, Toxicol. Lett. 147: 99-107).” for “modifications.”

Compound: C[C@@H]1CC[C@H]2[C@@H](C)C(=O)O[C@@H]3O[C@@]4(C)CC[C@@H]1[C@]32OO4 [Artemisinin, artemisinin]
- IC50 [1]: 101 ± 15 µM
- IC50 [2]: 31 ± 13 µM
- IC50 [3]: > 1000 µM
- IC50 ([4]; Homo sapiens, MCF7, 72 h): 44 ± 15 µM
- IC50 [5]: 204 ± 88 µM
- IC50 [6]: 156 ± 38 µM
- IC50 [7]: > 1000 µM

Compound: C[C@H]1[C@H](N2CCS(=O)(=O)CC2)O[C@@H]2O[C@@]3(C)CC[C@H]4[C@H](C)CC[C@@H]1[C@@]24OO3 [Artemisone, artemisone]
- levels of the general CDK inhibitor p21^waf1cip1 [8]: generally unchanged
- levels of cyclin D1 and its associated CDK 4 [9]: significantly reduced
- pro-apoptotic protein Bax [10]: no increase
- levels of pRb [11]: dramatic reduction
- cell viability (trypan blue dye exclusion) [12]: did not affect cell viability
- IC50 [1]: 6.4 ± 2.1 µM
- IC50 [2]: 14 ± 10 µM
- nature of interaction with OXP [13]: additive interaction
- activity against Plasmodium falciparum compared with other antimalarial drugs [14]: significantly more active
- IC50 [3]: 30 ± 26 µM
- effect on cell number ([3]; MJT3 cells, MTT 72 hr): significantly reduced cell number
- IC50 ([4]; Homo sapiens, MCF7, 72 h): 0.5 µM
- IC50 less for ATM than its precursor ART ([4]; MCF7): around 80 fold
- IC50 [4]: 0.56 ± 0.17 µM
- susceptibility to ATM relative to ART ([5]; HCT116, comparison of IC50): around 30 ×
- IC50 [5]: 9.5 ± 0.9 µM
- IC50 [6]: 4.5 ± 1.6 µM
- susceptibility to ATM relative to ART ([6]; SW480, comparison of IC50): around 30 ×
- toxicity [15]: almost negligible toxicity
- apoptotic/sub-G1 phase of the cell cycle ([16]; MCF7, equi-active (~IC25) concentration, 72 hrs): no increase
- cell cycle effect ([16]; MCF7, ~IC25, 72 hrs): G1-selective blockade
- cells in G1 ([16]; MCF7, ~IC25, 72 hrs, untreated 63±4.40%, p=0.015): 83±5.5%
- apoptotic/sub-G1 phase of the cell cycle ([17]; HCT116, equi-active (~IC25) concentration, 72 hrs): no increase
- distribution of cells within the G1, S and G2 phases ([17]; HCT116, ~IC25, 72 hrs): did not alter the distribution
- apoptotic/sub-G1 phase of the cell cycle [18]: no increase
- IC50 [7]: > 1000 µM
- impact on cell number ([7]; p53-mutant, resistant PANC1 cell line): neither drug had an impact

Compound: C[C@H]1[C@H](OC(=O)CCC(=O)O)O[C@@H]2O[C@@]3(C)CC[C@H]4[C@H](C)CC[C@@H]1[C@@]24OO3 [Artesunate, artesunate]
- BAX level ([19]; HCT116^norm cells): no effect
- BAX level ([19]; HCT116^poly cells): decrease
- cyclin B level ([20]; HCT116^norm cells): decrease
- cyclin B level ([20]; HCT116^poly cells): increase
- IC50 [21]: 1.92 ± 0.35 µM
- IC50 [22]: 9.8 ± 1.7 µM
- IC50 [23]: 2.3 ± 0.94 µM

Compound: Nc1ccn([C@@H]2O[C@H](CO)[C@@H](O)C2(F)F)c(=O)n1 [Gemcitabine, gemcitabine]
- IC50 [24]: 15 µM
- IC50 [22]: 14 ± 1.6 µM
- IC50 [23]: 1.9 ± 0.75 µM
